Molecules are shown by their SMILES. Where two headings read alike, the source gives them in different places.

The results in this text go back to patent US20180104220A1, “IMIDAZOLE COMPOUND” (MEDSHINE DISCOVERY INC., priority 2015, published 2018).

This experiment deals with T1, thromboxane synthetase (Rattus norvegicus, UniProt P49430).
T1 construct: Whole blood was collected from the heart of male SD rat after isoflurane anesthesia; from tissue; host or cells: whole blood of male Sprague-Dawley rats
T1 sequence (P49430 1-533): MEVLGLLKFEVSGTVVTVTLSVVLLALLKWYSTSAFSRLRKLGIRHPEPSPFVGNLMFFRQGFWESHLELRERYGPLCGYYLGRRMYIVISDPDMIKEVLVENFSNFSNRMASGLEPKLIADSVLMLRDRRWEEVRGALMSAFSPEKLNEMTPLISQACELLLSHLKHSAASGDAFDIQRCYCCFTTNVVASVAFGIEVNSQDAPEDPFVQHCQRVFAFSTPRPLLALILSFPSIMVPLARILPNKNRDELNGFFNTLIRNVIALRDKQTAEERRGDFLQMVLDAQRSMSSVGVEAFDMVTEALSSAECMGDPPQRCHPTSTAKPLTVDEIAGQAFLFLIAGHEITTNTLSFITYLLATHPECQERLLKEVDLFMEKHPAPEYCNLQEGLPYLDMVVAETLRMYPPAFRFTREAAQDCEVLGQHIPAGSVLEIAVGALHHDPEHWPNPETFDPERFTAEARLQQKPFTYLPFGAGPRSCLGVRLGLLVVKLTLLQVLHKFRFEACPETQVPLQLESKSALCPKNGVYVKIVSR
In words: Release of TXB2 in the in-vitro coagulation process of rats' whole blood. The conditions noted are these: male SD rat whole blood, 37° C. 30 mins, TXB2 by LC-MS/MS, read-out: IC50 for the release level of TXB2 in the in-vitro coagulation of rats' whole blood (thromboxane synthetase). In kind it is cell-based. The text has this:
Study for the Release of TXB2 in the in-vitro Coagulation Process of Rats' Whole Blood
In the in-vitro coagulation process, thromboxane A2 (TXA2) pathway was activated, resulting in the formation of large amounts of TXA2, which were rapidly metabolized to its stable form thromboxane B2 (TXB2).
The key enzyme of this pathway was thromboxane synthase. The generation of TXA2 could be inhibited by blocking this enzyme with specific inhibitors (tested compounds), and the level of TXB2 was thus decreased.
The activity of tested compound was measured with the IC50 of inhibiting the formation of TBX2.
Male Sprague-Dawley (SD) rats, purchased from Shanghai SLAC Laboratory Animal Co., Ltd.
0.9% normal saline, […] NaOH solution (vehicle), 100 uM thromboxane synthetase inhibitor solution, isoflurane
1. Tested compound was dissolved by normal saline and prepared to required concentration by gradient dilution. 167 uL of prepared solution was added to centrifuge tube.
2. Whole blood was collected from the heart of male SD rat after isoflurane anesthesia, added to centrifuge tube (0.5 mL), shaken up and incubated under 37° C. water bath for 30 mins until complete coagulation.
3. Centrifuge tube was taken out and centrifuged for 5 mins (6000 g, 4° C.) to get serum.
4. Assay the content of TXB2 by LC-MS/MS-AG (API 4000).
By comparison with the vehicle group, TXB2 contents of each sample were normalized to Control % by the formule:
Control %=(TBX2 level in test tube−TBX2 level in negative tube)/TBX2 level in control tube×100
Note: Test tube: solution of tested compound with series concentration
Negative tube: solution of thromboxane synthetase inhibitor at high concentration (100 uM)
Using GraphPad Prism (concentration as X-axis and Control % as Y-axis) to fit the data and calculate IC50.

The IC50 is the point on the concentration scale where inhibition reaches its midpoint. On to `Oc1cc(-c2ccc(Cn3ccnc3)cc2)on1` [Compound 1, 5-(4-((1H-imidazol-1-yl)methyl)phenyl)isoxazol-3-ol], for which the IC50 (class symbols) was at most 25 nM.
As for `Oc1cc(-c2ccc(Cn3ccnc3)c(F)c2)on1` [Compound 2, 5-(4-((1H-imidazol-1-yl)methyl)-3-fluorophenyl)isoxazol-3-ol], where the note is “class symbols”, the IC50 lay within 100 to 250 nM.
For `Oc1cc(-c2ccc(Cn3ccnc3)cc2F)on1` [Compound 3, 5-(4-((1H-imidazol-1-yl)methyl)-2-fluorophenyl)isoxazol-3-ol], the IC50 (class symbols) is 50 to 100 nM.
For the molecule `Oc1cc(-c2cc(F)c(Cn3ccnc3)cc2F)on1` [Compound 4, 5-(4-((1H-imidazol-1-yl)methyl)-2,5-difluorophenyl)isoxazol-3-ol], the half-maximal inhibitory concentration (IC50) (class symbols) was in the range of 25 to 50 nM.
Consider `Oc1cc(-c2c(F)cc(Cn3ccnc3)cc2F)on1` [Compound 5, 5-(4-((1H-imidazol-1-yl)methyl)-2,6-difluorophenyl)isoxazol-3-ol], for which, where the note is “class symbols”, the IC50 lay in the range of 50 to 100 nM.
In the case of `Oc1cc(-c2cc(F)c(Cn3ccnc3)c(Cl)c2)on1` [Compound 6, 5-(4-((1H-imidazol-1-yl)methyl)-3-chloro-5-fluorophenyl)-isoxazol-3-ol], the half-maximal inhibitory concentration (IC50) (class symbols) is 25 to 50 nM.
For `Oc1cc(-c2ccc(Cn3ccnc3)cc2Cl)on1` [Compound 7, 5-(4-((1H-imidazol-1-yl)methyl)-2-chlorophenyl)isoxazol-3-ol], the 50% inhibitory concentration (IC50) (class symbols) was in the range of 50 to 100 nM.
`Cc1cc(Cn2ccnc2)ccc1-c1cc(O)no1` [Compound 8, 5-(4-((1H-imidazol-1-yl)methyl)-2-methylphenyl)isoxazol-3-ol]: the IC50 (class symbols) is 50 to 100 nM.
Turning to `COc1cc(Cn2ccnc2)ccc1-c1cc(O)no1` [Compound 9, 5-(4-((1H-imidazol-1-yl)methyl)-2-methoxyphenyl)isoxazol-3-ol], where the note is “class symbols”, the IC50 is at most 25 nM.
`COc1cc(-c2cc(O)no2)ccc1Cn1ccnc1` [Compound 10, 5-(4-((1H-imidazol-1-yl)methyl)-3-methoxyphenyl)isoxazol-3-ol]: for the setting “class symbols”, the half-inhibitory concentration (IC50) lay in the range of 50 to 100 nM.
As to `Oc1cc(-c2ccc(Cn3ccnc3)c(Cl)c2)on1` [Compound 11, 5-(4-((1H-imidazol-1-yl)methyl)-3-chlorophenyl)isoxazol-3-ol], where the note is “class symbols”, the IC50 lay in the range of 25 to 50 nM.
On to `Cc1cc(-c2cc(O)no2)ccc1Cn1ccnc1` [Compound 12, 5-(4-((1H-imidazol-1-yl)methyl)-3-methylphenyl)isoxazol-3-ol], for which, for the setting “class symbols”, the IC50 fell in the range of 25 to 50 nM.
For the molecule `Oc1cc(-c2ccc(Cn3ccnc3)c(Br)c2)on1` [Compound 13, 5-(4-((1H-imidazol-1-yl)methyl)-3-bromophenyl)isoxazol-3-ol], the IC50 (class symbols) fell in the range of 25 to 50 nM.
Turning to `Oc1cc(-c2ccc(Cn3ccnc3)nc2)on1` [Compound 14, 5-(6-((1H-imidazol-1-yl)methyl)pyridin-3-yl)isoxazol-3-ol], the IC50 (class symbols) was above 250 nM.
For the molecule `Oc1cc(-c2ccc(Cn3ccnc3)c(C3CC3)c2)on1` [Compound 15, 5-(4-((1H-imidazol-1-yl)methyl)-3-cyclopropylphenyl)isoxazol-3-ol], the IC50 (class symbols) was 50 to 100 nM.
As to `CCc1cc(-c2cc(O)no2)ccc1Cn1ccnc1` [Compound 16, 5-(4-((1H-imidazol-1-yl)methyl)-3-ethylphenyl)isoxazol-3-ol], the IC50 (class symbols) was at most 25 nM.
Consider `Oc1cc(-c2cc(F)c(Cn3ccnc3)c(F)c2)on1` [Compound 17, 5-(4-((1H-imidazol-1-yl)methyl)-3,5-difluorophenyl)isoxazol-3-ol], for which the IC50 (class symbols) was at most 25 nM.
As to `Cc1cc(-c2cc(O)no2)cc(C)c1Cn1ccnc1` [Compound 18, 5-(4-((1H-imidazol-1-yl)methyl)-3,5-dimethylphenyl)isoxazol-3-ol], the concentration for half-maximal inhibition (IC50) (class symbols) was above 250 nM.
On to `CC(c1ccc(-c2cc(O)no2)cc1)n1ccnc1` (stereo not drawn) [Compound 20, 5-(4-(1-(1H-imidazol-1-yl)ethyl)phenyl)isoxazol-3-ol], for which, under “class symbols”, the IC50 is at most 25 nM.
As for `C[C@H](c1ccc(-c2cc(O)no2)cc1)n1ccnc1` [Compound 21, (R)-5-(4-(1-(1H-imidazol-1-yl)ethyl)phenyl)isoxazol-3-ol], under “class symbols”, the IC50 was at most 25 nM.
Regarding `C[C@@H](c1ccc(-c2cc(O)no2)cc1)n1ccnc1` [Compound 22, (S)-5-(4-(1-(1H-imidazol-1-yl)ethyl)phenyl)isoxazol-3-ol], the IC50 (class symbols) was 50 to 100 nM.
For `CC(C)(c1ccc(-c2cc(O)no2)cc1)n1ccnc1` [Compound 23, 5-(4-(2-(1H-imidazol-1-yl)propan-2-yl)phenyl)isoxazol-3-ol], for the setting “class symbols”, the IC50 fell in the range of 100 to 250 nM.
Same read-out and setting: the result for `Oc1cc(-c2cccc(Cn3ccnc3)c2)on1` [Compound 24, 5-(3-((1H-imidazol-1-yl)methyl)phenyl)isoxazol-3-ol] reads above 250 nM.
For the molecule `Oc1cc(Cc2ccc(Cn3ccnc3)cc2)on1` [Compound 25, 5-(4-(2-(1H-imidazol-1-yl)methyl)benzyl)isoxazol-3-ol], the IC50 (class symbols) was above 250 nM.
Consider `Oc1cc(Cc2cccc(Cn3ccnc3)c2)on1` [Compound 26, 5-(3-((1H-imidazol-1-yl)methyl)benzyl)isoxazol-3-ol], for which the IC50 (class symbols) was above 250 nM.
As to `Oc1nccc(-c2ccc(Cn3ccnc3)cc2)c1F` [Compound 27, 4-(4-((1H-imidazol-1-yl)methyl)phenyl)-3-fluoropyridin-2-ol], the IC50 (class symbols) is above 250 nM.
For `Oc1c(F)ccc(-c2ccc(Cn3ccnc3)cc2)c1F` [Compound 28, 4′-((1H-imidazol-1-yl)methyl)-2,4-difluoro-[1,1′-biphenyl]-3-ol], the IC50 (class symbols) fell in the range of 100 to 250 nM.
As for `Oc1cc(-c2ccc(Cn3ccnc3)cc2)sn1` [Compound 29, 5-(4-((1H-imidazol-1-yl)methyl)phenyl)isothiazol-3-ol], the 50% inhibitory concentration (IC50) (class symbols) is above 250 nM.
With `Cc1c(O)noc1-c1ccc(Cn2ccnc2)cc1` [Compound 30, 5-(4-((1H-imidazol-1-yl)methyl)phenyl)-4-methylisoxazol-3-ol], the IC50 (class symbols) was above 250 nM.
Consider `Oc1cc(-c2ccc(Cn3ccnc3)cc2)[nH]n1` [Compound 31, 5-(4-((1H-imidazol-1-yl)methyl)phenyl)-1H-pyrazol-3-ol], for which, for the setting “class symbols”, the IC50 is above 250 nM.
`Oc1cc(CCCCn2ccnc2)on1` [Compound 32, 5-(4-(1H-imidazol-1-yl)butyl)isoxazol-3-ol]: the 50% inhibitory concentration (IC50) (class symbols) was above 250 nM.
As to `Oc1cc(CCCCCn2ccnc2)on1` [Compound 33, 5-(5-(1H-imidazol-1-yl)pentyl)isoxazol-3-ol], for the setting “class symbols”, the IC50 was above 250 nM.
Same read-out and setting: in the case of `Oc1cc([C@H]2CC[C@H](Cn3ccnc3)CC2)on1` [Compound 34, 5-(trans-4-((1H-imidazol-1-yl)methyl)cyclohexyl)isoxazol-3-ol] it was 25 to 50 nM; in that of `Oc1cc([C@H]2CC[C@@H](Cn3ccnc3)CC2)on1` [Compound 35, 5-(cis-4-((1H-imidazol-1-yl)methyl)cyclohexyl)isoxazol-3-ol], 50 to 100 nM; in that of `Oc1nccc(C2=CCC(Cn3ccnc3)CC2)c1F` (stereo not drawn) [Compound 36, 4-(4-((1H-imidazol-1-yl)methyl)cyclohex-1-en-1-yl)-3-fluoropyridin-2-ol], 100 to 250 nM.
For the molecule `O=C(O)/C=C/c1ccc(Cn2ccnc2)cc1` [Ozagrel, reference compound], for the setting “numeric value”, the concentration for half-maximal inhibition (IC50) worked out at 120 nM.
